Test results reported in PubChem BioAssay (NCI).
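Values below derive from 48-hour exposures of cells grown in 96-well plates, with endpoints linearly interpolated between the two concentrations bracketing the appropriate inhibition level. At the GI50, growth is halved. TGI marks complete inhibition of growth.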

Key:
Assay in all cases: NCI-60 cell line screen, 48 h
KM12 colon = test system: KM12 colon
COLO 205 colon = test system: COLO 205 colon
SK-MEL-5 melanoma = test system: SK-MEL-5 melanoma
HT29 colon = test system: HT29 colon
IGROV1 ovarian = test system: IGROV1 ovarian
SK-MEL-28 melanoma = test system: SK-MEL-28 melanoma
SR leukemia = test system: SR leukemia
HCT-116 colon = test system: HCT-116 colon
786-0 renal = test system: 786-0 renal
MOLT-4 leukemia = test system: MOLT-4 leukemia

Row | Structure (SMILES) | TGI (KM12 colon) [µM] | TGI (COLO 205 colon) [µM] | TGI (SK-MEL-5 melanoma) [µM] | TGI (HT29 colon) [µM] | TGI (IGROV1 ovarian) [µM] | TGI (SK-MEL-28 melanoma) [µM] | TGI (SR leukemia) [µM] | TGI (HCT-116 colon) [µM] | TGI (786-0 renal) [µM] | TGI (MOLT-4 leukemia) [µM] | GI50 (KM12 colon) [µM] | GI50 (COLO 205 colon) [µM] | GI50 (SK-MEL-5 melanoma) [µM] | GI50 (IGROV1 ovarian) [µM] | GI50 (SK-MEL-28 melanoma) [µM] | GI50 (MOLT-4 leukemia) [µM] | GI50 (HT29 colon) [µM] | GI50 (SR leukemia) [µM] | GI50 (HCT-116 colon) [µM]
1 | O=C1C(Cl)=C(N(C(=O)c2ccccc2)C(=O)c2ccccc2)C(=O)c2ccccc21 | 15.7 | 31 | 12.4 | 69.3 | > 100 | 40.2 | 81.2 | 17.6 | 34.7 | > 100 |  |  |  |  |  |  |  |  | 
2 | Nc1ncn2c(n1)nc1ccccc12 | > 100 | > 100 | > 100 | > 100 | > 100 | > 100 | > 100 | > 100 | > 100 | > 100 |  |  |  |  |  |  |  |  | 
3 | COc1ccccc1NC(=O)CC(=O)N1N=C(N2c3ccccc3Sc3ccccc32)CC1c1ccccc1 (centres undefined) | > 100 | > 100 | > 100 | > 100 | > 100 | > 100 | > 100 | > 100 | > 100 | > 100 |  |  |  |  |  |  |  |  | 
4 | O=C(N=c1ccc2nc(=O)[nH]n(O)c-2c1)C(F)(F)F | > 100 | > 100 | > 100 | > 100 | > 100 | > 100 | > 100 | > 100 | > 100 | > 100 |  |  |  |  |  |  |  |  | 
5 | COc1ccc(C2C(C#N)=C(S)N(C3OC(COC(C)=O)C(OC(C)=O)C(OC(C)=O)C3OC(C)=O)C(c3ccccc3)=C2C(C)=O)cc1 (centres undefined) | > 100 | > 100 | > 100 | > 100 | > 100 | > 100 |  | > 100 | > 100 | > 100 |  |  |  |  |  |  |  |  | 
6 | O=C(c1ccccc1)C1S(=O)(=O)OCCOS1(=O)=O | > 100 | > 100 | > 100 | > 100 | > 100 | > 100 | > 100 | > 100 | > 100 |  |  |  |  |  |  |  |  |  | 
7 | O=C1/C=C(/c2ccc(O)cc2)[C@@H](O)Cc2ccc(O)cc2O1 | > 100 | > 100 | > 100 | > 100 | > 100 |  | > 100 | > 100 | > 100 |  |  |  |  |  |  |  |  |  | 
8 | CCOC(=O)/C(=C/c1ccc(C(=O)OC)cc1)N(CC)CC | > 100 | > 100 | > 100 |  | > 100 | > 100 | > 100 | > 100 | > 100 | > 100 |  |  |  |  |  |  |  |  | 
9 | NC(CSSCC(N)=NCC12CC3CC(CC(C3)C1)C2)=NCC12CC3CC(CC(C3)C1)C2 | 29 | 52.5 | 36.5 | 28.4 | 40.9 | 44.4 |  | 80.9 | > 100 | 16.9 |  |  |  |  |  |  |  |  | 
10 | CCOC(=O)C(NC(=O)c1ccccc1)(N1CCN(c2cc3c(cc2F)c(=O)c(C(=O)O)cn3CC)CC1)C(F)(F)F (centres undefined) | 81.3 | 31.1 | 65.7 | > 100 | > 100 |  | 62.5 | > 100 | > 100 | 54.2 |  |  |  |  |  |  |  |  | 
11 | C=C(C)COC1CCCCO1 (centres undefined) | > 100 | > 100 | > 100 | > 100 | > 100 | > 100 |  | > 100 | > 100 | > 100 |  |  |  |  |  |  |  |  | 
12 | CC(=O)Oc1c(N2CCCCC2)c(C(=O)c2ccccc2)c(O)c2ccn(N(C)C)c12 | 27.1 | 33.3 | 29.7 | 29.3 |  | 34.8 |  | 22.5 | 33.8 | 49.8 |  |  |  |  |  |  |  |  | 
13 | COc1c2c(c3ccccc3c1O)C1C=CC2C1 (centres undefined) | 31.4 | 30.1 | 19.1 | 39.2 | 39 | 37.9 | 68.4 | 14.6 |  | 47.2 |  |  |  |  |  |  |  |  | 
14 | CCN(CC)CCN1C(=O)c2c(c3c4ccccc4[nH]c3c3ccc4ccccc4c23)C1=O | 3.22 | 10.8 | 3.12 |  | 2.83 | 3.18 |  |  |  | 2.9 | 1.74 | 2.56 | 1.71 | 1.43 | 1.74 | 0.666 |  |  | 
15 | Cc1cccc(N2C(=O)C3c4[nH]c5ccccc5c4C4CCC(C(C)(C)C)CC4C3C2=O)c1 (centres undefined) | 25.2 | 24.2 | 28.4 | 28.9 | 16.4 | 31.4 |  | 21.2 | 12.2 | 21.3 |  |  |  |  |  |  |  |  | 
16 | Cn1c(CO)ccc1-c1ccc(-c2ccc[se]2)[se]1 | > 100 | > 84.2 | > 90.2 | > 100 |  | > 100 | > 100 |  | > 71.2 | 59.7 |  |  |  |  |  |  |  |  | 
17 | O=[N+]([O-])C(/C=N/Nc1ccccc1)/C=N/Nc1ccccc1 | > 100 | > 100 | > 100 | > 100 | > 100 | > 100 |  | > 100 | > 100 | > 100 |  |  |  |  |  |  |  |  | 

Row | Structure (SMILES) | TGI (KM12 colon) [µM] | TGI (COLO 205 colon) [µM] | TGI (SK-MEL-5 melanoma) [µM] | TGI (HT29 colon) [µM] | TGI (IGROV1 ovarian) [µM] | TGI (SK-MEL-28 melanoma) [µM] | TGI (SR leukemia) [µM] | TGI (HCT-116 colon) [µM] | TGI (786-0 renal) [µM] | TGI (MOLT-4 leukemia) [µM] | GI50 (KM12 colon) [µM] | GI50 (COLO 205 colon) [µM] | GI50 (SK-MEL-5 melanoma) [µM] | GI50 (IGROV1 ovarian) [µM] | GI50 (SK-MEL-28 melanoma) [µM] | GI50 (MOLT-4 leukemia) [µM] | GI50 (HT29 colon) [µM] | GI50 (SR leukemia) [µM] | GI50 (HCT-116 colon) [µM]
18 | CC1(C)CCC(C)(C)C1C(=O)NC(O)C(=O)O (centres undefined) |  | > 100 | > 100 |  | > 100 | > 100 | > 100 | > 100 | > 100 | > 100 |  |  |  |  |  |  |  |  | 
19 | COc1cc(OC)cc(-c2n/c(=C\c3c(O)[nH]c4ccc(OC)cc34)cc3c2=Nc2ccccc2-3)c1 | 6.21 |  | 25.2 | 4.15 | 68.4 | 33.4 | 10.6 | 3.16 |  | 6.36 | 2.58 |  | 12.1 | 25.2 | 13.5 | 2.56 | 2.06 | 2.76 | 1.67
20 | Nc1[nH]nc2nc3ccccc3nc12 |  | > 100 | > 100 | > 100 | 99.2 | > 100 | 75.2 | > 100 |  | > 100 |  |  |  |  |  |  |  |  | 
21 | COC(=O)c1c(C#N)c(N)nc2c1CCC2 | > 100 | > 100 | > 100 | > 100 | > 100 | > 100 |  | > 100 | > 100 | > 100 |  |  |  |  |  |  |  |  | 
22 | CCOC(=O)C(Cc1c[nH]c2cc([N+](=O)[O-])ccc12)NS(=O)(=O)c1ccc2ccccc2c1 (centres undefined) | 30.8 | 32.1 |  | 31 | 48 | 32.1 | 68.2 | 30.9 | 76.1 | > 100 |  |  |  |  |  |  |  |  | 
23 | c1csc(-c2ccsc2-c2cccs2)c1 | > 100 | > 100 | > 100 | > 100 | > 100 |  | 21.3 | > 100 | > 100 | 71.1 |  |  |  |  |  |  |  |  | 
24 | Cc1oc2c(c1C)S(=O)(=O)C(C#N)=C(N(C)C)N2 | > 100 |  | > 100 | > 100 | > 100 | > 100 |  | > 100 | > 100 | > 100 |  |  |  |  |  |  |  |  | 
25 | O=C(CSc1nc(-c2ccccc2)c(-c2ccccc2)[nH]1)N/N=C/c1ccc(O)cc1 | 55.4 | 35.1 |  | 37.1 | 95.7 | > 100 | > 100 | 63.2 | 54.8 | 70.1 |  |  |  |  |  |  |  |  | 
26 | Cc1ccc(C2=C(C#N)C(N)OC3=C2COc2ccccc23)cc1 (centres undefined) | > 100 | > 100 | > 100 | > 100 | > 100 | > 100 | > 100 | > 100 |  | > 100 |  |  |  |  |  |  |  |  | 
27 | CC1CC/C(=C\c2ccc(F)cc2)C(=O)/C1=C/c1ccc(F)cc1 (centres undefined) | 14.5 | 18.5 | 24.1 | 12.1 | 11.1 | 37 |  | 5.4 | 8.42 | 8.81 |  |  |  |  |  |  |  |  | 
28 | Clc1ccc(-c2cn3c(nc4ccccc43)c(/C=C/c3ccco3)n2)cc1 | > 100 | > 100 | > 100 | > 100 | > 100 | > 100 | 41.4 | > 100 | > 100 |  |  |  |  |  |  |  |  |  | 
29 | CC(O)(P(=O)(O)O)P(=O)(O)OCC(O)CN1CCOCC1 (centres undefined) | > 100 | > 100 |  | > 100 | > 100 | > 100 | > 100 | > 100 | > 100 | > 100 |  |  |  |  |  |  |  |  | 
30 | CCOC(=O)NC(OC)(C(F)(F)F)C(F)(F)F |  | > 100 | > 100 | > 100 | > 100 | > 100 | > 100 | > 100 | > 100 | > 100 |  |  |  |  |  |  |  |  | 
31 | O=C(/C=C(\S/C=C(/c1ccccc1)N1CCn2c(C(=O)c3ccccc3)c(C(=O)c3ccccc3)c(C(=O)c3ccccc3)c21)C(=O)c1ccccc1)c1ccccc1 | > 10 | > 10 | > 10 | > 10 | > 10 | > 10 |  | > 10 | > 10 | > 10 |  |  |  |  |  |  |  |  | 
32 | Cc1ccc(C(=O)Nc2ccc(CP(=O)(O)O)cc2CP(=O)(O)O)cc1NC(=O)Nc1cc(C(=O)Nc2ccc(CP(=O)(O)O)cc2CP(=O)(O)O)ccc1C | > 100 | > 100 | > 100 | > 100 | > 100 | > 100 |  | > 100 | > 100 |  |  |  |  |  |  |  |  |  | 
33 | C/C=C1\CN(C(=O)OC(C)(C)C)C1C(=O)OC(C)(C)C (centres undefined) |  | > 100 | > 100 | > 100 | > 100 | > 100 | > 100 | > 100 | > 100 | > 100 |  |  |  |  |  |  |  |  | 
